The values below are quoted from earlier work in article PMC3838783 (Applied Biochemistry and Biotechnology, 2013).

The test system of the data set is rats.

Take `CC(=O)NO` [acetohydroxyamic acid]: the Teratogenicity entry is given as “teratogenic”.
